Assay results reported in publication PMC5449500, “Comparative Effects of Chloride Channel Inhibitors on LRRC8/VRAC-Mediated Chloride Conductance” (Frontiers in Pharmacology, 2017).
Where “and” joins values, the source holds several entries; their conditions need not be identical. Equal values may be shown once. Entries after “also recorded” stand apart in the source; their conditions may differ. Read-outs that look alike come from different tables or passages of the source.

Key:
LRRC8/VRAC = target: T1, LRRC8/VRAC (Homo sapiens, UniProt Q8IWT6); experiment: Patch-clamp whole-cell recording of hypotonicity-activated VRAC/LRRC8 chloride current (ICl,swell); type: cell-based; details: for inhibition at 10 µM / Inhibition at 10 μM (%) of chloride conductance: 10 μM inhibitor, -100 mV; for inhibition at 10 µM: read-out: Inhibition at 10 μM (%) of chloride conductance; for Hill coefficient (chloride conductance): WT HEK-293, fitted concentration-response curve at -100 mV; for IC50: read-out: IC50 (chloride conductance); for inhibition at 20 µM / Effect on hypotonic-activated Cl- currents at 20 μM: 20 μM inhibitor
T1 construct: tested in wild-type HEK-293 cells expressing LRRC8 proteins; endogenous in cells; host or cells: wild-type HEK-293 cells
T1 sequence (Q8IWT6 1-810): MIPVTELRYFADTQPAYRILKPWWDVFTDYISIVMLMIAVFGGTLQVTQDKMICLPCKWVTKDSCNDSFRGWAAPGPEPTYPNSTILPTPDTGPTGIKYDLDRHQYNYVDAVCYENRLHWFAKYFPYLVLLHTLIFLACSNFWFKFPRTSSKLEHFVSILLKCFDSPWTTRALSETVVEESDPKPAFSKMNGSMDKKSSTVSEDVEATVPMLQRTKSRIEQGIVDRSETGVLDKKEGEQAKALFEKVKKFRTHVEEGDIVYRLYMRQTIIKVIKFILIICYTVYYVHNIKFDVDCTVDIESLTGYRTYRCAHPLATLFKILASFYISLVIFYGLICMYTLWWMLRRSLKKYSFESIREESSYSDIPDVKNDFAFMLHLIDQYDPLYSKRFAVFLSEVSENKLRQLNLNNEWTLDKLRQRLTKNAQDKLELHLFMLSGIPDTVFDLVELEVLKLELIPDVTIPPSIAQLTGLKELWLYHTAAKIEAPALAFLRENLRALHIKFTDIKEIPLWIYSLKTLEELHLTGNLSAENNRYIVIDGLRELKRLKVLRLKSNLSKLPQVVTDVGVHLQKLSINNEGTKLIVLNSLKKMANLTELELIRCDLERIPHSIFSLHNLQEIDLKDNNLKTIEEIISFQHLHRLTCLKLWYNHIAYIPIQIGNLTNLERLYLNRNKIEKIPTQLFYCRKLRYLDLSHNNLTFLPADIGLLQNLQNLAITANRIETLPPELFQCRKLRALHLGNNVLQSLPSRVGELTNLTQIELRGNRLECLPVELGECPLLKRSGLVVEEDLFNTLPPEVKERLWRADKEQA
T1 sequence (Q7L1W4 1-858 partner): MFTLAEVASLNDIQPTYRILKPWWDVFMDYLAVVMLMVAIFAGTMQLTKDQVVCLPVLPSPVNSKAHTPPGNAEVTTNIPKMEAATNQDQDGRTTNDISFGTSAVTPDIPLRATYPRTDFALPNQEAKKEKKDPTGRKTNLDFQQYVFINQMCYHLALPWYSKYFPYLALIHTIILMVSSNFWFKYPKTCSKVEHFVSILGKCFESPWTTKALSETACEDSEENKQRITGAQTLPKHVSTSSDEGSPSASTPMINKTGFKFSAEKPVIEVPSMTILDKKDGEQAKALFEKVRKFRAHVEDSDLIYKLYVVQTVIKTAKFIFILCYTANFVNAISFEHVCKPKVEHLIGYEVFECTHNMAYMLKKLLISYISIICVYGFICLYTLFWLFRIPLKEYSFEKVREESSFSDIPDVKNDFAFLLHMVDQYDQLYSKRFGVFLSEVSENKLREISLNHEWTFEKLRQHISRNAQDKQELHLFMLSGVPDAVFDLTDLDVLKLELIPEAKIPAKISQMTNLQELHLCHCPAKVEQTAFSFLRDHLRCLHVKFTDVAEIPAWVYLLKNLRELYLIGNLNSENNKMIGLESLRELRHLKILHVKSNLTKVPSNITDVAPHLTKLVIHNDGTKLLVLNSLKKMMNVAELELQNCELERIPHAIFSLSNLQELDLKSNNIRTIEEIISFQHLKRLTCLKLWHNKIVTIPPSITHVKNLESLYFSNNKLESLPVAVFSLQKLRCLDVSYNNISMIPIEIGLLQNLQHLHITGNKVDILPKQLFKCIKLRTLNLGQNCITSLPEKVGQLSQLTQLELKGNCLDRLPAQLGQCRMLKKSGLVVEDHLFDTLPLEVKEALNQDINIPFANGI
Protocol: The ruptured-whole-cell configuration of the patch-clamp technique was used to measure the activation of VRAC conductance during hypotonic experimental conditions. Cell currents and cell capacitances were recorded using an EPC 10 amplifier [HEKA Elektronik, Lambrecht (Pfalz), Germany]. The membrane potential of the cells was held at -50 mV, and 400-ms pulses from -100 to +100 mV were applied in 20-mV increments. The I/V relationships were expressed as the mean current amplitudes measured at all potentials at 6–10 ms after the pulse onset.
The pipette solution contained (in mM) 140 NMDGCl, 10 HEPES (pH 7.4, HCl), 5 EGTA and 5 MgATP (290 mOsm.l^-1). The normal NMDGCl bath solution contained (in mM) 140 NMDGCl, 10 HEPES (pH 7.4, HCl), 1 CaCl2, 1 MgCl2, and ∼70 mannitol (340 mOsm.l^-1). This solution was designed to prevent the spontaneous activation of VRAC currents. Hypo-osmotic NMDGCl solution (270 mOsm.l^-1) was obtained by removing the mannitol from the NMDGCl bath solution.
Patch-clamp whole-cell recordings were performed in iso-osmotic bath solution (control condition), and the solution was rapidly exchanged to the hypo-osmotic solution. The hypotonic condition was maintained until the LRRC8/VRAC current had stabilized at its maximal value (3–6 min). The percent inhibition at each concentration of inhibitor was calculated at -100 mV holding potentials after at least 2 min of constant perfusion.
Concentration-response curves, IC50 and Hill slope were fitted and determined using the following equations:
Span=Top−Bottom y=Bottom+(Top−Bottom)/1+10^(LogIC50−x)^*Hill Slope

HEK-293 WT cells = experiment: Regulatory volume decrease (RVD) after hypotonic challenge, calcein fluorescence self-quenching; type: cell-based, human; details: for RVD inhibition at 10 μM (%) / inhibition at 10 µM: 10 μM inhibitor, after 30 min; for Effect on RVD at 30 μM: 30 μM inhibitor; for inhibition at 10 µM: Homo sapiens, HEK293, 0.5 h
Protocol: Measurements of changes in cell volume were performed using the calcein fluorescence self-quenching method. Briefly, calcein at high concentrations undergoes spontaneous self-quenching, and its fluorescence intensity decreases with increasing calcein concentration ([Capó-Aponte et al., 2005]). The variation in the fluorescence due to self-quenching indirectly reflects the volume of the cell.
HEK-293 WT and HEK-293 LRRC8-KO cells were cultured on polylysine-coated 24-well plates for 2 days. The cells were then loaded for 40 min with a solution containing 10 μM calcein-AM (Sigma–Aldrich) and washed 3 times with 1 ml of isotonic medium containing (in mM) 145 NaCl, 5 KCl, 1 MgCl2, 1 CaCl2, 10 glucose, and 10 HEPES pH 7.4 (300 mOsm.l^-1). Under this control experimental condition, basal fluorescence was measured every 90 s for 10 min using a plate reader (Ex: 460 nm, Em: 520 nm; Synergy HT, Biotek). After the baseline recording period (10 min), the medium was exchanged and replaced with iso- or hypo-osmotic bath solution adjusted to 200, 150, or 100 mOsm.l^-1. The change in fluorescence induced by replacement of the medium was then recorded over the following 50 min. The experiments were performed under control conditions and in the presence of various concentrations of inhibitors. The percent inhibition resulting from exposure of the cells to solutions containing a concentration of 10 μM for each inhibitor was calculated after maintaining the cells in hypotonic bath solution in the presence of the inhibitor for 30 min.

CFTR = details: cited from earlier work
CaCC = test system: CaCC; parameters: method as in Namkung et al. (2013); details: ref Namkung et al. (2013); cited from earlier work
ICl,swell = test system: ICl,swell; parameters: method as in Decher et al. (2001); details: ref Decher et al. (2001); cited from earlier work
[1] = test system: other chloride channels (CFTR, CaCC, ClC); parameters: method as in Decher et al. (2001); details: 10 μM; ref Decher et al. (2001); cited from earlier work
[2] = whole-cell, WT HEK-293, hypotonic solution 270 mOsm.l^-1, calculated at -100 mV
[3] = 100 mOsm.l^-1 hypotonic challenge, 10 µM
[4] = 100 mOsm.l^-1 hypotonic challenge

Row | Compound | inhibition at 10 µM (LRRC8/VRAC; whole-cell) [%] | Hill coefficient (chloride conductance) (LRRC8/VRAC; whole-cell) | IC50 (LRRC8/VRAC; [2]) | RVD inhibition at 10 μM (%) (HEK-293 WT cells; [3]) | Effect on RVD at 30 μM (HEK-293 WT cells; [4]) | inhibition at 10 µM (HEK-293 WT cells; [4]) [%] | inhibition at 20 µM (LRRC8/VRAC; whole-cell) [%] | Effect on hypotonic-activated Cl- currents at 20 μM (LRRC8/VRAC; whole-cell) | also measured
1 | Cc1ccc(C2Nc3ccccc3-n3c(-c4ccccc4)c4c(=O)n(C)c(=O)n(C)c4c32)o1 (stereo not shown) [PPQ-102] | 18.3 ± 11.3 | 2.2 ± 1.2 | 20 µM and 19.6 µM | 29.8 ± 5.9 | fully inhibited RVD | 30 ± 6 |  |  | Effect on ICl,swell at 1 μM (LRRC8/VRAC; 1 μM inhibitor, whole-cell): ineffective; inhibition at 30 µM (LRRC8/VRAC; 30 μM inhibitor, whole-cell): > 85%; IC50 (CFTR; ref Tradtrantip et al., 2009, read-out: IC50 (CFTR)): < 0.1 µM
2 | CCCCC1(C2CCCC2)Cc2cc(OCCCC(=O)O)c(Cl)c(Cl)c2C1=O (stereo not shown) [DCPIB, 4-(2-butyl-6,7-dichlor-2-cyclopentyl-indan-1-on-5-yl) oxybutyric acid] | 82.7 ± 3.2 | 2.9 ± 1.1 | 5 µM and 4.8 µM | 35.8 ± 3.1 |  | 36 ± 3 | > 90 | full blockade | Effect on RVD at 20 μM (HEK-293 WT cells; 20 μM inhibitor, 100 mOsm.l^-1 hypotonic challenge): maximal effect; also recorded: completely impaired volume regulation; Block of ICl,swell at 10 μM (ICl,swell): more than 80%; Effect on other chloride channels (CFTR, CaCC, ClC) [1]: without any effect
3 | O=C(O)c1ccc(/C=C2\SC(=S)N(c3cccc(C(F)(F)F)c3)C2=O)cc1 [CFTRinh-172] |  |  |  |  |  |  |  | minor effect | Inhibition at 10 μM (%) of chloride conductance (LRRC8/VRAC; whole-cell): No effect; Effect on hypotonic-activated Cl- currents at up to 10 μM (LRRC8/VRAC; concentrations of up to 10 μM, whole-cell): almost no effect; Effect on VRAC current at up to 20 μM (LRRC8/VRAC; concentrations of up to 20 μM): no significant effect; IC50 (chloride conductance) (LRRC8/VRAC; [2]): No effect; RVD inhibition at 10 μM (%) (HEK-293 WT cells; [4]): No effect; Effect on RVD at up to 20 μM (HEK-293 WT cells; concentrations of up to 20 μM): no significant effect; Effect on RVD at doses lower than 30 μM (HEK-293 WT cells; lower doses than 30 μM): ineffective; IC50 (CFTR; ref Ma et al., 2002, read-out: IC50 (CFTR)): 0.3 µM

The next lines start with results.

Row | inhibition at 10 µM (LRRC8/VRAC; whole-cell) [%] | Hill coefficient (chloride conductance) (LRRC8/VRAC; whole-cell) | IC50 (LRRC8/VRAC; [2]) | Compound | RVD inhibition at 10 μM (%) (HEK-293 WT cells; [3]) | Effect on RVD at 30 μM (HEK-293 WT cells; [4]) | inhibition at 10 µM (HEK-293 WT cells; [4]) [%] | inhibition at 20 µM (LRRC8/VRAC; whole-cell) [%] | Effect on hypotonic-activated Cl- currents at 20 μM (LRRC8/VRAC; whole-cell) | also measured
4 | 46.6 ± 8.8 | 0.9 ± 0.4 | 10 µM and 9.5 µM | O=C(CNc1ccc2ccccc2c1)N/N=C/c1cc(Br)c(O)c(Br)c1O [GlyH-101] |  |  |  | > 85 |  | IC50 (CFTR; ref Muanprasat et al., 2004, read-out: IC50 for CFTR): ~5 µM
5 | 58.4 ± 2 | 1.5 ± 0.6 | 6 µM and 5.5 µM | CCc1c(C)nc(SCC(=O)Nc2nc(-c3ccc(OC)cc3)cs2)[nH]c1=O [T16Ainh-A01] | 39.8 ± 9.6 | maximal effect | 40 ± 10 |  |  | inhibition at 3 µM (LRRC8/VRAC; 3 μM inhibitor, whole-cell, read-out: Inhibition of hypotonically activated Cl- current at 3 μM): 23 ± 5%; IC50 (CaCC): 1 µM
6 | 23 ± 4 | 0.8 ± 0.4 | 55 µM and 55.2 µM | O=C(O)c1cccnc1Nc1cccc(C(F)(F)F)c1 [NFA, niflumic acid] | 19.9 ± 7.2 | maximally inhibited the RVD process | 20 ± 7 |  |  | Inhibition at 10 μM (%) of chloride conductance (LRRC8/VRAC; whole-cell, 10 µM): 22.5 ± 4.0%; Effect on hypotonically activated Cl- current at 100 μM (LRRC8/VRAC; 100 μM inhibitor, whole-cell): maximal inhibitory effect
